Blank lines part the entries; values can stand above or below the molecule they belong to. The source made the active and inactive calls. The calls are words filed in the database; no cut-off is given here.
Tests used:
[1] = biological target: T1, Hepatocyte growth factor receptor (Homo sapiens, UniProt P08581); test: Inhibition of c-MET assessed as inhibition of HGF-induced phosphorylation at 5 uM by Western blotting analysis
[2] = biological target: Hepatocyte growth factor receptor (Canis lupus familiaris) (UniProt Q75ZY9); test: Inhibition of c-MET in MDCK cells assessed as inhibition of HGF-induced cell motility by wound healing assay; assay type: cell-based
Sequence of Hepatocyte growth factor receptor (Canis lupus familiaris) (Q75ZY9 whole entry): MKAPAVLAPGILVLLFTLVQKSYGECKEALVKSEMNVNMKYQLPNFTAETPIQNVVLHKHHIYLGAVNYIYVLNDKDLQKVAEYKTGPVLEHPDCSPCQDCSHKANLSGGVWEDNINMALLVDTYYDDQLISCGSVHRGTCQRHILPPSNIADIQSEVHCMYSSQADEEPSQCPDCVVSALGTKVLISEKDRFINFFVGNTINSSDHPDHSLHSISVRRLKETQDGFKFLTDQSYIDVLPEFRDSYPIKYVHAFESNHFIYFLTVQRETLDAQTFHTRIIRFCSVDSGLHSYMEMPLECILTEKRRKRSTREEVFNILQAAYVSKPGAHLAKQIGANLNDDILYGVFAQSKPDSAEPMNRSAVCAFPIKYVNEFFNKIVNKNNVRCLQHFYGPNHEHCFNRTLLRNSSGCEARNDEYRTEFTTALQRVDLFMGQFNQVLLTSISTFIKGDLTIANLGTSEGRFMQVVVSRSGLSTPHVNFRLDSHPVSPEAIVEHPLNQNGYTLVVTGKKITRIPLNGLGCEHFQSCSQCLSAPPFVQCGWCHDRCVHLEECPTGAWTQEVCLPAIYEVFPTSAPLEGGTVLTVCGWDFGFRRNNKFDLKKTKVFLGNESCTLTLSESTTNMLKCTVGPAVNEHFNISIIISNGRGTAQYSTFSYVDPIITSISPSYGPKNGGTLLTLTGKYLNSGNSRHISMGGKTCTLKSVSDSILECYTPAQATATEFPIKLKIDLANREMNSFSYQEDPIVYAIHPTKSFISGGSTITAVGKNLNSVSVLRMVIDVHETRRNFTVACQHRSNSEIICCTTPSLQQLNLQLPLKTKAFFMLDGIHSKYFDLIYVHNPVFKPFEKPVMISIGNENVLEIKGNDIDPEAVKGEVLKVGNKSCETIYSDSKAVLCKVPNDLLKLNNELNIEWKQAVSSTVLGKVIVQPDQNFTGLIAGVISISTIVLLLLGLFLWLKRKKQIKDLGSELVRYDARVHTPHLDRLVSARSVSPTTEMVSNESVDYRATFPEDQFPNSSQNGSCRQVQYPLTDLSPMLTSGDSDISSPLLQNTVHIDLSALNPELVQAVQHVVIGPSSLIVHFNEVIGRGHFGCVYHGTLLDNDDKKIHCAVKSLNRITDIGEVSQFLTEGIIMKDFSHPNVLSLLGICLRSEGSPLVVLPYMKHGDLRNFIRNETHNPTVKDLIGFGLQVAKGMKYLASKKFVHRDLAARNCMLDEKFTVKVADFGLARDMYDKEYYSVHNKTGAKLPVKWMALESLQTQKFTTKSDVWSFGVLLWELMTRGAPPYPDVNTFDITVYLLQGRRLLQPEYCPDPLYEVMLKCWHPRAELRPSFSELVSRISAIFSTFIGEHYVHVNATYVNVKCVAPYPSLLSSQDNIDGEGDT

[3] = biological target: T1, Hepatocyte growth factor receptor; test: Inhibition of HGF-induced phosphorylation of c-MET in human DU145 cells at 5 uM after 2 hrs by Western blotting analysis; assay type: cell-based; settings: DU-145
[4] = biological target: Hepatocyte growth factor receptor (Canis lupus familiaris) (UniProt Q75ZY9); test: Inhibition of c-MET in MDCK cells assessed as inhibition of HGF-induced branching morphogenesis after 5 days by microscopic analysis; assay type: cell-based
[5] = biological target: Hepatocyte growth factor receptor (Canis lupus familiaris) (UniProt Q75ZY9); test: Inhibition of c-MET in MDCK cells assessed as inhibition of HGF-induced cell motility at 10 uM by wound healing assay; assay type: cell-based
[6] = biological target: T1, Hepatocyte growth factor receptor; test: Inhibition of HGF-induced phosphorylation of c-MET in human A549 cells at 5 uM after 2 hrs by Western blotting analysis; assay type: cell-based
[7] = biological target: Hepatocyte growth factor receptor (Canis lupus familiaris) (UniProt Q75ZY9); test: Inhibition of HGF-induced phosphorylation of c-MET in MDCK cells at 5 uM after 2 hrs by Western blotting analysis; assay type: cell-based
[8] = biological target: T1, Hepatocyte growth factor receptor; test: Inhibition of HGF-induced phosphorylation of c-MET in human NCI-H441 cells after 2 hrs by Western blotting analysis; assay type: cell-based
[9] = biological target: T1, Hepatocyte growth factor receptor; test: Inhibition of HGF-induced phosphorylation of c-MET in human NCI-H441 cells at 5 uM after 2 hrs by Western blotting analysis; assay type: cell-based
[10] = biological target: T1, Hepatocyte growth factor receptor; test: Inhibition of c-MET in human MKN45 cells assessed as reduction of phosphorylation at 20 uM after 2 hrs by Western blotting analysis; assay type: cell-based; settings: MKN-45
[11] = biological target: Hepatocyte growth factor receptor (Mus musculus) (UniProt P16056); test: Inhibition of c-MET in mouse NIH3T3 cells assessed as reduction of TPR-Met phosphorylation at 20 uM after 2 hrs by Western blotting analysis; assay type: cell-based
Sequence of Hepatocyte growth factor receptor (Mus musculus) (P16056 whole entry): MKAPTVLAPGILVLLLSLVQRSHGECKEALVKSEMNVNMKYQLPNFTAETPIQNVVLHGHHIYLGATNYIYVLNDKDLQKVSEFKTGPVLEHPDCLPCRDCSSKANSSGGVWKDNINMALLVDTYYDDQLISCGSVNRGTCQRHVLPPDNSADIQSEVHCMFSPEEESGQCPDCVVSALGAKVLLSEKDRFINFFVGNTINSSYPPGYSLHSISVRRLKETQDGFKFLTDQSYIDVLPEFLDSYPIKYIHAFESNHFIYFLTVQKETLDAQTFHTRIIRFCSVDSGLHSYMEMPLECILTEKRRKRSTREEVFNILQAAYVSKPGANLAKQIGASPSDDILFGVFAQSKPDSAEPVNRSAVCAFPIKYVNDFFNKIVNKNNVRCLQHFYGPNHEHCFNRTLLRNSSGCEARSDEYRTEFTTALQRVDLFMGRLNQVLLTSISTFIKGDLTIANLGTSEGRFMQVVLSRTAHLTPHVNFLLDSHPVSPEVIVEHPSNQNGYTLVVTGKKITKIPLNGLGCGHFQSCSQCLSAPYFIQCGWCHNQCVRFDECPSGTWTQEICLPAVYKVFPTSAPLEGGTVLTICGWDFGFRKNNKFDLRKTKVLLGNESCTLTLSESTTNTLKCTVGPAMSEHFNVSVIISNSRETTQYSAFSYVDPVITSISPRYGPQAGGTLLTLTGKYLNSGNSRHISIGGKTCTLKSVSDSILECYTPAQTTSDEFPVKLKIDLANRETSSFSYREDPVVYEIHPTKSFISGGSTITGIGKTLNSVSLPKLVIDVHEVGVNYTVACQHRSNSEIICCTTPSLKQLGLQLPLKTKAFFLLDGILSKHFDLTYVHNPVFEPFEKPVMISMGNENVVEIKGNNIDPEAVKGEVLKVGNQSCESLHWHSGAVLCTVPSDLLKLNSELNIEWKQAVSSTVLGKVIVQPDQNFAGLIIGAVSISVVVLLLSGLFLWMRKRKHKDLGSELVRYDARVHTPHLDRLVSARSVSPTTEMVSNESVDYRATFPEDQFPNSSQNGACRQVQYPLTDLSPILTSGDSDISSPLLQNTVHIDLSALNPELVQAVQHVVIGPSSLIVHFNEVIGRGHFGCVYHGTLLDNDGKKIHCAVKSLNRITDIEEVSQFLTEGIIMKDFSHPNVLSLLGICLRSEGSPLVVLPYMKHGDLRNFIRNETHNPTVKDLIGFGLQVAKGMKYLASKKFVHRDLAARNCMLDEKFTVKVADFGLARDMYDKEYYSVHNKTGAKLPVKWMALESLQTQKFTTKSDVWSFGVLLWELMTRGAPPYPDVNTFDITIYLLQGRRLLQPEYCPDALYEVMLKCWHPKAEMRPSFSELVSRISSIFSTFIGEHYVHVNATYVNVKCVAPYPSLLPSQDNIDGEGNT

[12] = biological target: Hepatocyte growth factor receptor (Canis lupus familiaris) (UniProt Q75ZY9); test: Inhibition of c-MET in MDCK cells assessed as inhibition of HGF-induced cell scattering after 24 hrs by microscopic analysis; assay type: cell-based
[13] = biological target: Hepatocyte growth factor receptor (Canis lupus familiaris) (UniProt Q75ZY9); test: Inhibition of c-MET in MDCK cells assessed as inhibition of HGF-induced urokinase activity after 24 hrs; assay type: cell-based
[14] = biological target: Hepatocyte growth factor receptor (Canis lupus familiaris) (UniProt Q75ZY9); test: Inhibition of HGF-induced phosphorylation of c-MET in MDCK cells after 2 hrs by Western blotting analysis; assay type: cell-based
[15] = biological target: T1, Hepatocyte growth factor receptor; test: Inhibition of HGF-induced phosphorylation of c-MET in human DU145 cells after 2 hrs by Western blotting analysis; assay type: cell-based; settings: DU-145
[16] = biological target: T1, Hepatocyte growth factor receptor; test: Inhibition of HGF-induced phosphorylation of c-MET in human A549 cells after 2 hrs by Western blotting analysis; assay type: cell-based
[17] = biological target: Hepatocyte growth factor receptor (Canis lupus familiaris) (UniProt Q75ZY9); test: Inhibition of c-MET in MDCK cells assessed as inhibition of HGF-induced cell scattering at 10 uM after 24 hrs by microscopic analysis; assay type: cell-based
[18] = biological target: T1, Hepatocyte growth factor receptor; test: Inhibition of c-MET by ELISA assay
[19] = biological target: Hepatocyte growth factor receptor (Canis lupus familiaris) (UniProt Q75ZY9); test: Inhibition of c-MET in MDCK cells assessed as inhibition of HGF-induced urokinase activity at 10 uM after 24 hrs; assay type: cell-based

T1 sequence (P08581 whole entry): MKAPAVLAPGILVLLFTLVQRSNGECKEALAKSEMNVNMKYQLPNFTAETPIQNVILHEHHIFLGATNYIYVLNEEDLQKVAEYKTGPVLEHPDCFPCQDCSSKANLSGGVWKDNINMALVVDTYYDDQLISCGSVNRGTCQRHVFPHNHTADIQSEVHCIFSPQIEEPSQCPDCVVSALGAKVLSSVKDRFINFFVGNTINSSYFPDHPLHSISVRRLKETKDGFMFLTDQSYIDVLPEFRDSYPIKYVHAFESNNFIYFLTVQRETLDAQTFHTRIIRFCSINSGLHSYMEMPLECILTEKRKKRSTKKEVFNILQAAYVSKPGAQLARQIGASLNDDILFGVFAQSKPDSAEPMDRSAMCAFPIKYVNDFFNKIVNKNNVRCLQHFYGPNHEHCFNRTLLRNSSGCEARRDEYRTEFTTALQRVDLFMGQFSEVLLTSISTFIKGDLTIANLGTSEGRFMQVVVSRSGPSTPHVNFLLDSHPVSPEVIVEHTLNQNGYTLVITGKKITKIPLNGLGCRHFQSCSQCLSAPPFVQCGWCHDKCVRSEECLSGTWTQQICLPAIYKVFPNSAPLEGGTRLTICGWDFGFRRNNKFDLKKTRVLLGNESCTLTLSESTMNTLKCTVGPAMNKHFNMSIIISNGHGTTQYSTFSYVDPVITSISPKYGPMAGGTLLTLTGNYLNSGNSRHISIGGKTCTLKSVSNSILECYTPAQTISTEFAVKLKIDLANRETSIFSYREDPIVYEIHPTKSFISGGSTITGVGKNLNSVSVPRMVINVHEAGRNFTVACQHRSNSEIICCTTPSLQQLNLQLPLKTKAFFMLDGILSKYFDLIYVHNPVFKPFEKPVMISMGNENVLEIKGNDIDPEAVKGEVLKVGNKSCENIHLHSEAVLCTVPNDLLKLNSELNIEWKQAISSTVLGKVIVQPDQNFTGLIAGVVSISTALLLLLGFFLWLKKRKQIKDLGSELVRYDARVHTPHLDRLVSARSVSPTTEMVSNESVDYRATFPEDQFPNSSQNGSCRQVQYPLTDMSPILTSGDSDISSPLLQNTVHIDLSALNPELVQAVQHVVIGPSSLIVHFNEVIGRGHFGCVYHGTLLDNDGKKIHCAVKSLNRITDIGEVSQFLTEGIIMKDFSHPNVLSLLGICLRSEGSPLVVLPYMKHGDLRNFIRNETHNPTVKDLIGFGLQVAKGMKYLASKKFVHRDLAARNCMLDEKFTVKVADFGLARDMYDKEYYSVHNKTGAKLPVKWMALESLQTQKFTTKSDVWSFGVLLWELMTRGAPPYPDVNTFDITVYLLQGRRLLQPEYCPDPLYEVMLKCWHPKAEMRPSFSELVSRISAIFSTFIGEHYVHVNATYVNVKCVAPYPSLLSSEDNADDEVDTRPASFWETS

- inhibition [1]: inactive
SMILES: CC(C)CC(=O)c1c(O)c(C=O)c(O)c(C=O)c1O

- inhibition [1]: Active
SMILES: CC(C)C[C@@H](c1c(O)c(C=O)c(O)c(C=O)c1O)[C@@]1(C)CC[C@@H]2[C@@H]1[C@H]1[C@@H](CC[C@@]2(C)O)C1(C)C

- inhibition [1]: Active
SMILES: CC(C)C[C@H](c1c(O)c(C=O)c(O)c(C=O)c1O)[C@@]1(C)CC[C@@H]2[C@@H]1[C@H]1[C@@H](CC[C@@]2(C)O)C1(C)C

- inhibition [1]: inactive
SMILES: CC1(C)[C@H]2[C@H]3[C@@H](CC[C@]3(C)O)[C@](C)(O)CC[C@H]21

- inhibition [1]: inactive
SMILES: C[C@@H]1CC[C@@H]2[C@@H]1[C@H]1[C@@H](CC[C@@]2(C)O)C1(C)C

- inhibition [1]: inactive
SMILES: Cc1c(O)c(C=O)c(O)c(C(=O)CC(C)C)c1O

- inhibition [2]: Dose-dependent effect
- inhibition [3]: > 50%
- inhibition [4]: Active
- inhibition [5]: Active
- inhibition [6]: > 50%
- inhibition [7]: > 50%
- inhibition [8]: Dose-dependent effect
- inhibition [9]: > 50%
- inhibition [10]: inactive
- inhibition [11]: inactive
- inhibition [12]: Dose-dependent effect
- inhibition [13]: Dose-dependent effect
- inhibition [14]: Dose-dependent effect
- inhibition [15]: Dose-dependent effect
- inhibition [16]: Dose-dependent effect
- inhibition [17]: Active
- IC50 [18]: > 50 µM
- inhibition [19]: 80%
- inhibition [1]: Active
SMILES: CC(C)CC(=O)c1c(O)c(C=O)c(O)c(C[C@@]2(C)CC[C@@H]3[C@@H]2[C@H]2[C@@H](CC[C@@]3(C)O)C2(C)C)c1O [EUCALYPTIN A]

— ChEMBL document CHEMBL2169789, “Potent HGF/c-Met axis inhibitors from Eucalyptus globulus: the coupling of phloroglucinol and sesquiterpenoid is essential for the activity” (J Med Chem, 2012)
